Active and inactive are the calls of the source. The calls are words filed in the database; no cut-off is given here. Square brackets hold non-standard residues; d marks the D form. Peptide text beside a SMILES is read from it. * marks the point of attachment. ξ: configuration not given here. ξPhe(2-I) = NC(Cc1ccccc1I)C(=O)O; Nphe = O=C(O)CNCc1ccccc1; Boc = CC(C)(C)OC(=O)*
Molecular target: Kappa-type opioid receptor (Homo sapiens, UniProt P41145)
Experiment: Displacement of [3H]U69593 from human KOR expressed in HEK cell membranes assessed as inhibition constant incubated for 60 mins by microbeta 2 scintillation counting method
Set-up: species or system Cell membrane
Conditions: not given

Sequence of Kappa-type opioid receptor (P41145 whole entry): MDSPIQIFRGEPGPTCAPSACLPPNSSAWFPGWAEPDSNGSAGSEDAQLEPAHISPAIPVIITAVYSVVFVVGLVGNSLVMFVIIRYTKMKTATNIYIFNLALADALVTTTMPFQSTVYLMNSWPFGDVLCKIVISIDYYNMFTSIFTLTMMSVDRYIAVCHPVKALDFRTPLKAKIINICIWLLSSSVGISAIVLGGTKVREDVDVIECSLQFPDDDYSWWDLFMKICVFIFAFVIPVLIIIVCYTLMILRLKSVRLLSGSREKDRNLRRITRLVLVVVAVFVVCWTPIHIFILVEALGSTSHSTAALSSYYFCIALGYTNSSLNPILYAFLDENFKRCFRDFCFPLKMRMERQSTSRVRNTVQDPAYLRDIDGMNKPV

SMILES	Ki [µM]
O=C1CN(Cc2ccccc2)C(=O)C(Cc2cccc(O)c2I)N1 (stereo not given)	> 10
COc1cccc(CC2NC(=O)CN(Cc3ccccc3)C2=O)c1I (stereo not given)	0.924
Cc1cccc(CC2NC(=O)CN(Cc3ccccc3)C2=O)c1I (stereo not given)	> 10
COc1cccc(CC2NC(=O)[C@H](Cc3ccccc3)NC2=O)c1I (stereo not given in full)	> 10
COC(=O)C(Cc1cccc(OC)c1I)NC(=O)CCCc1ccccc1 (stereo not given)	> 10
COC(=O)C(Cc1cccc(C)c1I)NC(=O)CNCc1ccccc1 (stereo not given)	0.123
COC(=O)C(Cc1cccc(OC)c1I)NC(=O)CN(Cc1ccccc1)C(C)=O (stereo not given)	> 10
COc1cccc(CC(NC(=O)CNCc2ccccc2)C(=O)O)c1I (stereo not given)	> 10
COC(=O)C(Cc1cccc(OC)c1I)NC(=O)CNCc1cccnc1 (stereo not given)	> 10
COC(=O)C(Cc1ccccc1I)NC(=O)CN(Cc1ccccc1)C(=O)OC(C)(C)C (stereo not given) (Boc-[Nphe]-[ξPhe(2-I)]-OMe)	4.18

Molecular target: Mu-type opioid receptor (Homo sapiens, UniProt P35372)
Experiment: Displacement of [3H]DAMGO from human MOR expressed in CHO cell membranes assessed as inhibition constant incubated for 60 mins by microbeta 2 scintillation counting method
Set-up: species or system Cell membrane
Conditions: not given

Sequence of Mu-type opioid receptor (P35372 whole entry): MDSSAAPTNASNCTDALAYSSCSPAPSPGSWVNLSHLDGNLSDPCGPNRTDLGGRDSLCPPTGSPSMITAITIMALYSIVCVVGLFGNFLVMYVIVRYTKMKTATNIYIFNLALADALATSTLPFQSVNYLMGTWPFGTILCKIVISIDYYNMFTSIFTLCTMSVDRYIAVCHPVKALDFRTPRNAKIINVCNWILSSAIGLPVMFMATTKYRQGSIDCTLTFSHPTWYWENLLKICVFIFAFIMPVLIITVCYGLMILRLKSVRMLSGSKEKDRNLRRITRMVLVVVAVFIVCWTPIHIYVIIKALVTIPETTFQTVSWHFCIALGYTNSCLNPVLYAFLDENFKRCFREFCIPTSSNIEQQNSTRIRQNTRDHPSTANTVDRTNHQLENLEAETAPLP

SMILES	Ki [µM]
O=C1CN(Cc2ccccc2)C(=O)C(Cc2cccc(O)c2I)N1 (stereo not given)	> 10
COc1cccc(CC2NC(=O)CN(Cc3ccccc3)C2=O)c1I (stereo not given)	> 10
Cc1cccc(CC2NC(=O)CN(Cc3ccccc3)C2=O)c1I (stereo not given)	> 10
COc1cccc(CC2NC(=O)[C@H](Cc3ccccc3)NC2=O)c1I (stereo not given in full)	> 10
COC(=O)C(Cc1cccc(OC)c1I)NC(=O)CCCc1ccccc1 (stereo not given)	> 10
COC(=O)C(Cc1cccc(C)c1I)NC(=O)CNCc1ccccc1 (stereo not given)	> 10
COC(=O)C(Cc1cccc(OC)c1I)NC(=O)CN(Cc1ccccc1)C(C)=O (stereo not given)	> 10
COc1cccc(CC(NC(=O)CNCc2ccccc2)C(=O)O)c1I (stereo not given)	> 10
COC(=O)C(Cc1cccc(OC)c1I)NC(=O)CNCc1cccnc1 (stereo not given)	> 10
COC(=O)C(Cc1ccccc1I)NC(=O)CN(Cc1ccccc1)C(=O)OC(C)(C)C (stereo not given) (Boc-[Nphe]-[ξPhe(2-I)]-OMe)	4.38

Molecular target: Delta-type opioid receptor (Homo sapiens, UniProt P41143)
Experiment: Displacement of [3H]DADLE from human DOR expressed in CHO cell membranes assessed as inhibition constant incubated for 60 mins by microbeta 2 scintillation counting method
Set-up: species or system Cell membrane
Conditions: not given

Sequence of Delta-type opioid receptor (P41143 whole entry): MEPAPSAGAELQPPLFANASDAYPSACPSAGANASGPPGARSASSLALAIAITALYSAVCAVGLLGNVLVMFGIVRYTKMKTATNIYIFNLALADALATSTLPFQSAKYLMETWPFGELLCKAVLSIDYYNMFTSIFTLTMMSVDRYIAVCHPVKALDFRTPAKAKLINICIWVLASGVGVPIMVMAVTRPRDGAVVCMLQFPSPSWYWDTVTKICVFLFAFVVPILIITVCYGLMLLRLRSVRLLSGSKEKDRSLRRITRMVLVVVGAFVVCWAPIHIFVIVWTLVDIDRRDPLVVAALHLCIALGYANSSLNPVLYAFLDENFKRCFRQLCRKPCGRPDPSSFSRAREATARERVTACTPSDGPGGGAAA

SMILES	Ki [µM]
O=C1CN(Cc2ccccc2)C(=O)C(Cc2cccc(O)c2I)N1 (stereo not given)	> 10
COc1cccc(CC2NC(=O)CN(Cc3ccccc3)C2=O)c1I (stereo not given)	> 10
Cc1cccc(CC2NC(=O)CN(Cc3ccccc3)C2=O)c1I (stereo not given)	> 10
COc1cccc(CC2NC(=O)[C@H](Cc3ccccc3)NC2=O)c1I (stereo not given in full)	> 10
COC(=O)C(Cc1cccc(OC)c1I)NC(=O)CCCc1ccccc1 (stereo not given)	> 10
COC(=O)C(Cc1cccc(C)c1I)NC(=O)CNCc1ccccc1 (stereo not given)	> 10
COC(=O)C(Cc1cccc(OC)c1I)NC(=O)CN(Cc1ccccc1)C(C)=O (stereo not given)	> 10
COc1cccc(CC(NC(=O)CNCc2ccccc2)C(=O)O)c1I (stereo not given)	> 10
COC(=O)C(Cc1cccc(OC)c1I)NC(=O)CNCc1cccnc1 (stereo not given)	> 10
COC(=O)C(Cc1ccccc1I)NC(=O)CN(Cc1ccccc1)C(=O)OC(C)(C)C (stereo not given) (Boc-[Nphe]-[ξPhe(2-I)]-OMe)	> 10

Organism: Homo sapiens
Experiment: Selectivity ratio of Ki for displacement of [3H]DAMGO from human MOR expressed in CHO cell membranes to Ki for displacement of [3H]U69593 from human KOR expressed in HEK cell membranes
Conditions: not given

SMILES	Ratio Ki
COc1cccc(CC2NC(=O)CN(Cc3ccccc3)C2=O)c1I (stereo not given)	> 11
COC(=O)C(Cc1cccc(C)c1I)NC(=O)CNCc1ccccc1 (stereo not given)	> 81

Organism: Homo sapiens
Experiment: Selectivity ratio of Ki for displacement of [3H]DADLE from human DOR expressed in CHO cell membranes to Ki for displacement of [3H]U69593 from human KOR expressed in HEK cell membranes
Conditions: not given

SMILES	Ratio Ki
COc1cccc(CC2NC(=O)CN(Cc3ccccc3)C2=O)c1I (stereo not given)	> 11
COC(=O)C(Cc1cccc(C)c1I)NC(=O)CNCc1ccccc1 (stereo not given)	> 81

Tested on: not listed separately
Experiment: Metabolic stability in human plasma assessed as half life at 100 uM measured upto 24 hrs by LC-MS/MS analysis
Type: ADME, cell-free
Conditions: not given

SMILES	half-life at 100 µM [h]
COc1cccc(CC2NC(=O)CN(Cc3ccccc3)C2=O)c1I (stereo not given)	> 24

Same assay, conditions: 24 h, 100 µM

SMILES	t1/2 [h]
COC(=O)C(Cc1cccc(C)c1I)NC(=O)CNCc1ccccc1 (stereo not given)	2.4577

Tested on: not listed separately
Experiment: Metabolic stability in Beagle dog plasma assessed as half life at 100 uM measured upto 24 hrs by LC-MS/MS analysis
Type: ADME, cell-free, Canis lupus familiaris
Conditions: 24 h, 100 µM

SMILES	t1/2 [h]
COC(=O)C(Cc1cccc(C)c1I)NC(=O)CNCc1ccccc1 (stereo not given)	3.8202

Same assay, conditions: Beagle

SMILES	half-life at 100 µM [h]
COc1cccc(CC2NC(=O)CN(Cc3ccccc3)C2=O)c1I (stereo not given)	> 24

Tested on: not listed separately
Experiment: Metabolic stability in Sprague-Dawley rat plasma assessed as half life at 100 uM measured upto 24 hrs by LC-MS/MS analysis
Type: ADME, cell-free
Conditions: not given

SMILES	half-life at 100 µM [h]
COc1cccc(CC2NC(=O)CN(Cc3ccccc3)C2=O)c1I (stereo not given)	> 24
COC(=O)C(Cc1cccc(C)c1I)NC(=O)CNCc1ccccc1 (stereo not given)	< 0.0167

Tested on: not listed separately
Experiment: Metabolic stability in CD-1 mouse plasma assessed as half life at 100 uM measured upto 24 hrs by LC-MS/MS analysis
Type: ADME, cell-free
Conditions: not given

SMILES	half-life at 100 µM [h]
COc1cccc(CC2NC(=O)CN(Cc3ccccc3)C2=O)c1I (stereo not given)	> 24
COC(=O)C(Cc1cccc(C)c1I)NC(=O)CNCc1ccccc1 (stereo not given)	< 0.0167

Tested on: not listed separately
Experiment: Metabolic stability in Sprague-Dawley rat liver microsomes assessed as intrinsic clearance at 100 uM measured upto 24 hrs in presence of NADPH by LC-MS/MS analysis
Type: ADME, Microsome
Conditions: not given

SMILES	Intrinsic clearance [µL/min/mg]
COc1cccc(CC2NC(=O)CN(Cc3ccccc3)C2=O)c1I (stereo not given)	381.8
COC(=O)C(Cc1cccc(C)c1I)NC(=O)CNCc1ccccc1 (stereo not given)	1889

Tested on: not listed separately
Experiment: Plasma protein binding in human assessed as bound fraction at 1 uM by LC-MS/MS analysis
Type: ADME, cell-free
Conditions: not given

SMILES	PPB [%]
COc1cccc(CC2NC(=O)CN(Cc3ccccc3)C2=O)c1I (stereo not given)	91.42
COC(=O)C(Cc1cccc(C)c1I)NC(=O)CNCc1ccccc1 (stereo not given)	97.86

Tested on: not listed separately
Experiment: Plasma protein binding in dog assessed as bound fraction at 1 uM by LC-MS/MS analysis
Type: ADME, cell-free, Canis lupus familiaris
Conditions: not given

SMILES	PPB [%]
COc1cccc(CC2NC(=O)CN(Cc3ccccc3)C2=O)c1I (stereo not given)	86.15

Tested on: not listed separately
Experiment: Plasma protein binding in rat assessed as bound fraction at 1 uM by LC-MS/MS analysis
Type: ADME, cell-free
Conditions: not given

SMILES	PPB [%]
COc1cccc(CC2NC(=O)CN(Cc3ccccc3)C2=O)c1I (stereo not given)	91.24

Tested on: not listed separately
Experiment: Plasma protein binding in mouse assessed as bound fraction at 1 uM by LC-MS/MS analysis
Type: ADME, cell-free
Conditions: not given

SMILES	PPB [%]
COc1cccc(CC2NC(=O)CN(Cc3ccccc3)C2=O)c1I (stereo not given)	85.15

Tested on: BEND3
Experiment: Apparent permeability coefficient of the compound across blood brain barrier in mouse BEND3 cells at 10 ug/ml measured upto 120 mins by LC-MS/MS analysis
Type: functional, cell-based
Conditions: dose 10.0 µg/ml

SMILES	Pe
COc1cccc(CC2NC(=O)CN(Cc3ccccc3)C2=O)c1I (stereo not given)	5.07 10^-3cm/min
COC(=O)C(Cc1cccc(C)c1I)NC(=O)CNCc1ccccc1 (stereo not given)	21.5 10^-3cm/min

Tested on: not listed separately
Experiment: In vivo inhibition of U50488-induced activation of KOR in C57BL/6 mouse assessed as reduction of occupancy on cold plate at 1 mg/kg, ip pre-treated with U50488 followed compound addition measured after 1 hr by TPPT assay (reference value: 67.28 +/- 10.8% )
Type: functional
Conditions: not given

SMILES	inhibition in vivo at 1 mg/kg [%]
COc1cccc(CC2NC(=O)CN(Cc3ccccc3)C2=O)c1I (stereo not given)	10.3

Tested on: Rattus norvegicus
Experiment: Antiallodynic activity against spinal nerve ligation neuropathic pain rat model assessed as reduction in mechanical hypersensitivity at 3 mg/kg, ip measured at 1 hr by von frey test
Type: functional, organism-based
Conditions: not given

SMILES	Activity
COc1cccc(CC2NC(=O)CN(Cc3ccccc3)C2=O)c1I (stereo not given)	Active

Tested on: Rattus norvegicus
Experiment: Effect on emotional-affective response in spinal nerve ligation neuropathic pain rat model assessed as reduction in audible vocalizations at 3 mg/kg, ip measured at 1 hr by preamplifier based analysis
Type: functional, organism-based
Conditions: not given

SMILES	Activity
COc1cccc(CC2NC(=O)CN(Cc3ccccc3)C2=O)c1I (stereo not given)	Active

Tested on: Rattus norvegicus
Experiment: Effect on emotional-affective response in spinal nerve ligation neuropathic pain rat model assessed as reduction in ultrasonic vocalizations at 3 mg/kg, ip measured at 1 hr by preamplifier based analysis
Type: functional, organism-based
Conditions: not given

SMILES	Activity
COc1cccc(CC2NC(=O)CN(Cc3ccccc3)C2=O)c1I (stereo not given)	Active

Reference: ChEMBL document CHEMBL5325418, “Studies on diketopiperazine and dipeptide analogs as opioid receptor ligands” (Eur J Med Chem, 2023)
